Results reported in ChEMBL document CHEMBL5131389, “PSMA-targeted small-molecule docetaxel conjugate: Synthesis and preclinical evaluation” (Eur J Med Chem, 2022).
≈ marks a conversion by molar mass, not a printed value. Where “and” joins values, the source holds several entries; their conditions need not be identical. Equal entries are not always repeated.

Columns and labels:
[1] = Chronic toxicity in Soviet Chinchilla rabbit assessed as increase in relative pancreas mass at 8.14 to 12.21 mg/kg, iv administered as pluronic F127 formulation at 4 intervals for 21 days and observed 3 weeks post last injection; assay type: organism-based, Oryctolagus cuniculus; details: in vivo, 2544 h, dose 8.14-12.21 mg/kg, time 106 day
[2] = Chronic toxicity in rat assessed as reduction in body weight at 15 to 18.75 mg/kg, iv administered as pluronic F127 formulation at 4 intervals for 21 days and observed on 77 th day; assay type: organism-based; details: in vivo, 1848 h, dose 15-18.75 mg/kg, time 77 day
[3] = Chronic toxicity in Soviet Chinchilla rabbit assessed as decrease in body weight at 10.17 mg/kg, iv administered as pluronic F127 formulation at 4 intervals for 21 days and observed upto day 49; assay type: organism-based, Oryctolagus cuniculus; details: in vivo, 1176 h, time < 49 day
[4] = Acute toxicity in ICR mouse assessed as violation of motor activity in hind limb administered intravenously as pluronic F127 formulation and measured for 14 days; details: in vivo, iv, 336 h, dose 183-960 mg/kg, time 14 day
[5] = Clearance in Albino Wistar rat at 15 mg/kg, iv administered as pluronic F127 formulation measured upto 72 hrs by high-performance liquid chromatography tandem mass spectrometric analysis; assay type: ADME, organism-based; details: in vivo
[6] = AUC (0 to infinity) in Albino Wistar rat at 15 mg/kg, iv administered as pluronic F127 formulation measured upto 72 hrs by high-performance liquid chromatography tandem mass spectrometric analysis; assay type: ADME, organism-based; parameters: dose 15 mg/kg, time < 72 hrs, route iv; details: in vivo
[7] = Chronic toxicity in rat assessed as change in relative heart mass at 15 to 18.75 mg/kg, iv administered as pluronic F127 formulation for 4 intervals of 21 days and observed 3 weeks post last injection relative to control; assay type: organism-based; details: in vivo, 2544 h, dose 15-18.75 mg/kg, time 106 day
[8] = Acute toxicity in ICR mouse assessed as hypertrophied adrenal gland at 183 to 960 mg/kg, iv administered as pluronic F127 formulation and measured for 14 days; assay type: organism-based; details: in vivo, 336 h, dose 183-960 mg/kg, time 14 day
[9] = test system: PC-3; test: Cytotoxicity against human PC-3 cells assessed as reduction in cell viability measured after 72 hrs by MTT assay; assay type: functional
[10] = Acute toxicity in ICR mouse assessed as lethal dose administered intravenously as pluronic F127 formulation and measured for 14 days; details: in vivo, route iv, time 14 day
[11] = Acute toxicity in ICR mouse assessed as kidney lesion at 183 to 960 mg/kg, iv administered as pluronic F127 formulation and measured for 14 days; assay type: organism-based; details: in vivo, 336 h, dose 183-960 mg/kg, time 14 day
[12] = AUC (0 to t) in Albino Wistar rat at 15 mg/kg, iv administered as pluronic F127 formulation measured upto 72 hrs by high-performance liquid chromatography tandem mass spectrometric analysis; assay type: ADME, organism-based; parameters: dose 15 mg/kg, time < 72 hrs, route iv; details: in vivo
[13] = Acute toxicity in Wistar rat assessed as animal death at 15 to 279 mg/kg, iv administered for 14 days as pluronic F127 formulation and measured after 3 days; assay type: organism-based; details: in vivo, 408 h, dose 15-279 mg/kg, time 17 day
[14] = test system: CWR22R; test: Antitumor activity against human 22Rv1 cells xenografted in Balb/c nude mouse assessed as tumor growth inhibition at 10 mg/kg, ip administered once in two days for three times and measured 4 days after the end of treatment relative to control; assay type: functional; details: 22Rv1, 240 h, time 10 day, read-out: TGI
[15] = Chronic toxicity in Soviet Chinchilla rabbit assessed as decrease in body weight at 8.14 mg/kg, iv administered as pluronic F127 formulation at 4 intervals for 21 days and observed 3 weeks post last injection; assay type: organism-based, Oryctolagus cuniculus; details: in vivo, 2544 h, time 106 day
[16] = AUC (0 to t) in Soviet Chinchilla rabbit at 8.1 mg/kg, iv administered as pluronic F127 formulation measured upto 72 hrs by high-performance liquid chromatography tandem mass spectrometric analysis; assay type: ADME, organism-based, Oryctolagus cuniculus; parameters: dose 8.1 mg/kg, time < 72 hrs, route iv; details: in vivo
[17] = Toxicity in Balb/c nude mouse xenografted with human 22Rv1 cells assessed as animal death at 20 mg/kg, ip measured upto 30 days; assay type: organism-based, CWR22R; details: in vivo, 720 h, time < 30 day
[18] = Half-life in Soviet Chinchilla rabbit at 8.1 mg/kg, iv administered as pluronic F127 formulation measured upto 72 hrs by high-performance liquid chromatography tandem mass spectrometric analysis; assay type: ADME, organism-based, Oryctolagus cuniculus; details: in vivo
[19] = Aqueous solubility of compound; assay type: physicochemical
[20] = Chronic toxicity in rat assessed as reduction in grooming frequency at 22.5 mg/kg, iv administered as pluronic F127 formulation at 4 intervals for 21 days and observed 3 weeks post last injection; assay type: organism-based; details: in vivo, 2544 h, time 106 day
[21] = Chronic toxicity in rat assessed as hair loss at 22.5 mg/kg, iv administered as pluronic F127 formulation at 4 intervals for 21 days and observed 3 weeks post last injection; assay type: organism-based; details: in vivo, 2544 h, time 106 day
[22] = Chronic toxicity in rat assessed as hair loss at 15 to 18.45 mg/kg, iv administered as pluronic F127 formulation at 4 intervals for 21 days and observed 3 weeks post last injection; assay type: organism-based; details: in vivo, 2544 h, dose 15-18.45 mg/kg, time 106 day
[23] = Acute toxicity in Wistar rat assessed as maximum tolerated dose administered intravenously as pluronic F127 formulation and measured for 14 days; details: in vivo, route iv, time 14 day
[24] = Clearance in Soviet Chinchilla rabbit at 8.1 mg/kg, iv administered as pluronic F127 formulation measured upto 72 hrs by high-performance liquid chromatography tandem mass spectrometric analysis; assay type: ADME, organism-based, Oryctolagus cuniculus; details: in vivo
[25] = Chronic toxicity in rat assessed as change in volume of excreted urine at 15 mg/kg, iv administered as pluronic F127 formulation at 4 intervals for 21 days and observed 3 weeks post last injection; assay type: organism-based; details: in vivo, 2544 h, time 106 day
[26] = Acute toxicity in Wistar rat assessed as violation of motor activity in hind limb administered intravenously as pluronic F127 formulation and measured for 14 days; details: in vivo, iv, 336 h, dose 15-279 mg/kg, time 14 day
[27] = Subchronic toxicity in Wistar rat assessed as cumulative effect of drug at 58 mg/kg, iv administered as pluronic F127 formulation daily for 28 days; assay type: organism-based; details: in vivo, 672 h, time 28 day
[28] = Ratio of AUC (t to infinity) to AUC (0 to infinity) in Soviet Chinchilla rabbit at 8.1 mg/kg, iv administered as pluronic F127 formulation measured upto 72 hrs by high-performance liquid chromatography tandem mass spectrometric analysis; assay type: ADME, organism-based, Oryctolagus cuniculus; details: in vivo
[29] = Toxicity in Balb/c nude mouse xenografted with human 22Rv1 cells assessed as animal death at 10 mg/kg, ip measured upto 30 days; assay type: organism-based, CWR22R; details: in vivo, 720 h, time < 30 day
[30] = test system: CWR22R; test: Antitumor activity against human 22Rv1 cells xenografted in Balb/c nude mouse assessed as tumor growth inhibition at 30 mg/kg, ip administered daily for 5 days and measured at day 34 relative to control; assay type: functional; parameters: scale not given: the % may be the effect or the level left; details: time 34 day
[31] = C0 in Soviet Chinchilla rabbit at 8.1 mg/kg, iv administered as pluronic F127 formulation measured upto 72 hrs by high-performance liquid chromatography tandem mass spectrometric analysis; assay type: ADME, organism-based, Oryctolagus cuniculus; details: in vivo
[32] = Acute toxicity in Wistar rat assessed as coprostasis at 15 to 279 mg/kg, iv administered as pluronic F127 formulation and measured for 14 days; assay type: organism-based; details: in vivo, 336 h, dose 15-279 mg/kg, time 14 day

**Q.** For `CC(=O)O[C@@]12CO[C@@H]1C[C@H](O)[C@@]1(C)C(=O)[C@H](O)C3=C(C)[C@@H](OC(=O)[C@H](OC(=O)CCCc4cn(CCCNC(=O)[C@H](Cc5ccc(O)cc5)NC(=O)[C@H](Cc5ccccc5)NC(=O)CCC(=O)NCCCCCC(=O)N(CCCC[C@H](NC(=O)N[C@@H](CCC(=O)O)C(=O)O)C(=O)O)Cc5cccc(Cl)c5)nn4)[C@@H](NC(=O)OC(C)(C)C)c4ccccc4)C[C@@](O)([C@@H](OC(=O)c4ccccc4)[C@H]21)C3(C)C`, which Activity [1] is on record?
**A.** Toxic

**Q.** What about the Activity [2] of the same compound?
**A.** Toxic

**Q.** What about the Activity [3] of the same compound?
**A.** Toxic

**Q.** What about the Activity [4] of the same compound?
**A.** Toxic

**Q.** And the clearance [5]?
**A.** 9.15 mL/min/kg

**Q.** And the AUC(0-inf) [6]?
**A.** 34000 ng·h/mL

**Q.** What about the Activity [7] of the same compound?
**A.** Toxic

**Q.** What about the Activity [8] of the same compound?
**A.** Toxic

**Q.** What about the CC50 [9] of the same compound?
**A.** 2.8 nM

**Q.** What about the LD50 at 336 h [10] of the same compound?
**A.** 409 mg/kg and 210 µmol/kg

**Q.** And the Activity [11]?
**A.** Toxic

**Q.** What about the AUC(0-t) at 72 h [12] of the same compound?
**A.** 28000 ng·h/mL

**Q.** And the Activity [13]?
**A.** Toxic

**Q.** And the inhibition in vivo at 10 mg/kg [14]?
**A.** 88%

**Q.** And the Activity [15]?
**A.** Toxic

**Q.** And the AUC(0-t) at 72 h [16]?
**A.** 253 µg·h/mL

**Q.** And the Activity [17]?
**A.** Non-Toxic

**Q.** What about the half-life [18] of the same compound?
**A.** 486 min

**Q.** And the solubility [19]?
**A.** 130 µg/mL (≈ 66.6 µM)

**Q.** What about the Activity [20] of the same compound?
**A.** Toxic

**Q.** What about the Activity [21] of the same compound?
**A.** Toxic

**Q.** What about the Activity [22] of the same compound?
**A.** Non-Toxic

**Q.** What about the MTD at 336 h [23] of the same compound?
**A.** 15 mg/kg

**Q.** What about the clearance [24] of the same compound?
**A.** 0.483 mL/min/kg

**Q.** And the Activity [25]?
**A.** Non-Toxic

**Q.** What about the Activity [26] of the same compound?
**A.** Toxic

**Q.** What about the Activity [27] of the same compound?
**A.** Toxic

**Q.** What about the “Ratio AUC” value [28] of the same compound?
**A.** 12%

**Q.** And the Activity [29]?
**A.** Non-Toxic

**Q.** And the Activity [30]?
**A.** 80%

**Q.** And the C0 at 72 h [31]?
**A.** 79 µg/mL

**Q.** And the Activity [32]?
**A.** Toxic
